Measurements reported in patent US20210154161A1, “MODIFIED-RELEASE BUCILLAMINE COMPOSITIONS, KITS, AND METHODS FOR TREATING CYSTINURIA, ARTHRITIS, GOUT, AND RELATED DISORDERS” (ALTIBIO, INC., priority 2017, published 2021).

What was measured:
[1] = Short- and long-term stability of bucillamine in Beagle dog plasma supernatant (pre-crashed plasma); assay type: in vitro ADME
Method: (§1) For the analysis, analytical stock solutions (1.00 mg/mL of the free drug) were prepared in DMSO. Also, three standards for use in the analysis were prepared in each of the following media, as follows: (1) in male Beagle plasma containing sodium heparin as the anticoagulant; (2) in Beagle plasma that had previously been treated with acetonitrile to precipitate and remove plasma proteins (the […] supernatant was diluted with acetonitrile (3:1 acetonitrile:plasma supernatant) to give pre-crashed Beagle plasma supernatant); and (3) in 10× diluted Beagle urine, diluted in water. The term “pre-crashed plasma” refers to plasma supernatant, obtained in the centrifugation step described above.
Stability Testing: Finally, short-term and long-term stability of bucillamine in Beagle dog plasma, pre-crashed plasma (plasma supernatant), and urine were assessed using two bucillamine concentrations (50 ng/mL or 500 ng/mL) under each of the following two conditions: (1) storage on the bench top for 4 hours and (2) frozen at −80° C. for up to one month. Samples were considered stable if their concentrations were within ±20% of nominal. These samples met acceptable criteria for stability and results are presented below, in Tables 5, 6, and 7, showing the % bucillamine remaining in Beagle dog plasma (Table 5), plasma supernatant (Table 6), and urine (Table 7).

[2] = Short- and long-term stability of bucillamine in Beagle dog urine; assay type: in vitro ADME
Method: as §1
Samples were considered stable if their concentrations were within ±20% of nominal. These samples met acceptable criteria for stability and results are presented below, in Tables 5, 6, and 7, showing the % bucillamine remaining in Beagle dog plasma (Table 5), plasma supernatant (Table 6), and urine (Table 7).

[3] = Total bucillamine plasma concentration after oral or intraduodenal dosing regimens; assay type: in vivo, male Beagle dogs; settings: n=3 dogs
Method: The objective of this study was to evaluate total and free plasma bucillamine, and urinary bucillamine, in male Beagle dogs following oral and intraduodenal administration of bucillamine, according to various dose regimens, to determine whether different regimens, simulating modified release in accordance with the present invention, would improve drug pharmacokinetics. Specifically, bucillamine formulations were administered to deliver 30 mg/kg per dog via single or multiple doses divided over a 12-hour period; and blood and urine samples then collected at different times post-dose.
Bucillamine formulations were administered to provide 30 mg/kg per dog according to five different dosage regimens (Leg 1, Leg 2, Leg 3, Leg 4, and Leg 5), as set forth in the table below. Leg 2, Leg 3, and Leg 4 (also referred to as Q6H, Q3H, and Q2H, respectively) were designed to simulate modified-release formulations, in accordance with certain embodiments of the present invention. Following administration, blood and urine samples were collected at the time points, or over the time intervals, also as indicated below.
Preparation of Dosing Formulations: Capsules for Legs 1-5 were prepared and filled on the day of dosing, as follows. For Legs 1, 2, and 5, bucillamine was dry mixed with avicel and mannitol to make a 40:30:30 mixture of bucillamine to avicel to mannitol, respectively; for study Legs 3 and 4, a 20:40:40 mixture of bucillamine to avicel to mannitol, respectively, was prepared. The dry mixes were custom filled with the appropriate amount of powder to deliver the specified doses to each dog based, on their respective body weights.
Animal Dosing and Sample Collection: This non-clinical study followed established practices and standard operating procedures of Absorption Systems and Absorption Systems Inc., as well as the study protocol. Study groups each included three dogs. The dogs were housed one per cage. For Legs 1-4, the dogs were fasted for at least six hours prior to each administration of the formulation. For Legs 1-4, food was given approximately ten hours post initial dosing. Animals had free access to water throughout the study. For Leg 5, the dogs were fasted for at least sixteen hours prior to each administration of the formulation. For Leg 5, food was given approximately eight hours post initial dosing. Animals had free access to water throughout the study. Additionally, each dog received a 60 mL subcutaneous injection of saline (a 30 mL injection, into each two different sites) approximately 30 minutes prior to dosing, for hydration.
Intraduodenal (ID) administration: Animals were anesthetized by a slow IV infusion of Propofol (6-10 mg/kg), or with an intramuscular injection of a cocktail containing ketamine (approximately 10-20 mg/kg), diazepam (3 mg/kg), and acepromazine (0.05 mg/kg) given IM about 5-10 minutes before intubation. Once animals were confirmed adequately anesthetized, they were intubated and maintained using isoflurane (approximately 1-5% in oxygen 1 to 4 L/min) as necessary until dosing was complete. Formulations were administered into the proximal duodenum via endoscopic guidance to verify the dosing site. The endoscope first was maneuvered into the pyloric sphincter with camera visualization of the proximal duodenum. Once there was confirmation that the endoscope was placed between the pylorus and proximal duodenum, the test article was delivered to the proximal duodenum followed by a 5 mL flush. […]

[4] = Example 5: urine cystine in cystinuria dogs, simulated extended-release bucillamine; assay type: in vivo; settings: enterically-coated bucillamine 8 times/day, same total daily dosage
Method: This Example describes a study to confirm the feasibility of reducing cystine levels in the urine of cystinuria dogs receiving more frequent and lower doses of bucillamine, in a dosing schedule designed to simulate the extended release formulations of the present invention, compared to urine cystine levels in cystinuria dogs receiving non-coated bucillamine. Study Design: Subject dogs are dosed as follows: Day 1: […] Day 2: Repeat Day 1 Day 3: No treatment Day 4: No treatment Day 5: To simulate extended-release, enterically-coated bucillamine is orally administered at lower dose, 8 times/day (i.e., every three hours), to provide a total daily dosage equal to that used in Days 1 and 2. A simple enteric coating is used that avoids release in the stomach. Also, 24 hour urine cystine capacity is measured, that is, all urine over a 24-hour period, starting from the time of the first dose, is collected and used to measure urinary cystine concentration. Day 6: Repeat Day 5

[5] = majority of patients; 1,800 mg bucillamine over 7 days; 72 hours post-dose; without rescue drug; cited from earlier work

CC(C)(S)C(=O)N[C@@H](CS)C(=O)O [bucillamine, N-(2-mercapto-2-methylpropionyl)-L-cysteine]
% Bucillamine Remaining in Beagle Dog Plasma Supernatant ([1]; 50 ng/mL (low), -80 C freezer for 1 week): 94.3%
% Bucillamine Remaining in Beagle Dog Plasma Supernatant ([1]; 50 ng/mL (low), -80 C freezer for 2 week): 99.1%
% Bucillamine Remaining in Beagle Dog Plasma Supernatant ([1]; 50 ng/mL (low), -80 C freezer for 4 week): 107%
% Bucillamine Remaining in Beagle Dog Plasma Supernatant ([1]; 50 ng/mL (low), bench top (RT) for 4 hours): 105%
% Bucillamine Remaining in Beagle Dog Plasma Supernatant ([1]; 500 ng/mL (high), -80 C freezer for 1 week): 97.2%
% Bucillamine Remaining in Beagle Dog Plasma Supernatant ([1]; 500 ng/mL (high), -80 C freezer for 2 week): 110%
% Bucillamine Remaining in Beagle Dog Plasma Supernatant ([1]; 500 ng/mL (high), -80 C freezer for 4 week): 119%
% Bucillamine Remaining in Beagle Dog Plasma Supernatant ([1]; 500 ng/mL (high), bench top (RT) for 4 hours): 117%
% Bucillamine Remaining in Beagle Dog Urine ([2]; High (2500 ng/mL), -80 C freezer for 1 week): 102%
% Bucillamine Remaining in Beagle Dog Urine ([2]; High (2500 ng/mL), -80 C freezer for 2 week): 101%
% Bucillamine Remaining in Beagle Dog Urine ([2]; High (2500 ng/mL), -80 C freezer for 4 week): 96.3%
% Bucillamine Remaining in Beagle Dog Urine ([2]; High (2500 ng/mL), bench top (RT) for 4 hours): 102%
% Bucillamine Remaining in Beagle Dog Urine ([2]; Low (250 ng/mL), -80 C freezer for 1 week): 97.7%
% Bucillamine Remaining in Beagle Dog Urine ([2]; Low (250 ng/mL), -80 C freezer for 2 week): 90.9%
% Bucillamine Remaining in Beagle Dog Urine ([2]; Low (250 ng/mL), -80 C freezer for 4 week): 88.9%
% Bucillamine Remaining in Beagle Dog Urine ([2]; Low (250 ng/mL), bench top (RT) for 4 hours): 93.7%
maximum plasma concentrations of total bucillamine (average) ([3]; Leg 1 (Q12H): PO, single 30 mg/kg dose): 24400 ± 8253 ng/mL
maximum plasma concentrations of total bucillamine (average) ([3]; Leg 2: PO 30 mg/kg as two 15 mg/kg doses at 0 and 6 h): 33533 ± 2139 ng/mL
maximum plasma concentrations of total bucillamine (average) ([3]; Leg 3 (Q3H): PO 30 mg/kg as four 7.5 mg/kg doses at 0, 3, 6, 9 h): 25133 ± 3500 ng/mL
maximum plasma concentrations of total bucillamine (average) ([3]; Leg 4: PO 30 mg/kg as six 5 mg/kg doses at 0, 2, 4, 6, 8, 10 h): 23800 ± 819 ng/mL
maximum plasma concentrations of total bucillamine (average) ([3]; Leg 5 (Q12H): ID, single 30 mg/kg dose): 19940 ± 11015 ng/mL
urine cystine levels over Days 5-6 compared with Days 1-2 of uncoated (immediate-release) dosing [4]: consistently lower
reduction in target joint pain scores from baseline [5]: at least 50%
